Drawing on the OligoGym collection, this text covers target mRNA inhibition for 30 substances.

Values joined by “and” are separate entries in the source; they are usually repeats but may differ in a detail not shown here. Identical values can stand only once. HELM strings list units from the 5' end as sugar, base in round brackets, then linkage (d deoxyribose, r ribose, m 2'-O-methyl, p phosphodiester). Methylation of C is not given here. [moe] = 2'-O-(2-methoxyethyl) (MOE); [cEt] = constrained ethyl (cEt); [sp] = phosphorothioate linkage

The series addresses HBV. The following applies: ASO.

As for “RNA1{[moe](G)[sp].[moe](A)[sp].d(G)[sp].d(G)[sp].d(C)[sp].d(A)[sp].d(T)[sp].d(A)[sp].d(G)[sp].d(C)[sp].d(A)[sp].[moe](G)[sp].[moe](C)[sp].[moe](A)[sp].[moe](G)[sp].[moe](G)[sp].[moe](A)}$$$$V2.0”, the target mRNA inhibition (HepG2, 0.07 µM) is 64% and 47%.

On to “RNA1{[moe](G)[sp].[moe](A)[sp].d(A)[sp].d(C)[sp].d(T)[sp].d(G)[sp].d(G)[sp].d(A)[sp].d(G)[sp].d(C)[sp].d(C)[sp].[moe](A)[sp].[moe](C)[sp].[moe](C)[sp].[moe](A)[sp].[moe](G)[sp].[moe](C)}$$$$V2.0”, for which the target mRNA inhibition (HepG2, 0.07 µM) is 70% and 69%.

As to “RNA1{[moe](A)[sp].[cEt](C)[sp].[cEt](T)[sp].d(G)[sp].d(A)[sp].d(A)[sp].d(C)[sp].d(A)[sp].d(A)[sp].d(A)[sp].d(T)[sp].d(G)[sp].d(G)[sp].[cEt](C)[sp].[cEt](A)[sp].[moe](C)}$$$$V2.0”, the target mRNA inhibition (HepG2, 0.07 µM) was 67% and 64%.

Regarding “RNA1{[moe](A)[sp].[moe](C)[sp].[moe](C)[sp].[moe](A)[sp].d(C)[sp].d(T)[sp].d(G)[sp].d(A)[sp].d(A)[sp].d(C)[sp].d(A)[sp].d(A)[sp].d(A)[sp].[moe](T)[sp].[moe](G)[sp].[moe](G)}$$$$V2.0”, the target mRNA inhibition (HepG2, 0.07 µM) was 54% and 65%.

Take “RNA1{[moe](G)[sp].[cEt](G)[sp].[cEt](T)[sp].d(G)[sp].d(A)[sp].d(A)[sp].d(G)[sp].d(C)[sp].d(G)[sp].d(A)[sp].d(A)[sp].d(G)[sp].d(T)[sp].[cEt](G)[sp].[cEt](C)[sp].[moe](A)}$$$$V2.0”: the target mRNA inhibition (HepG2, 0.07 µM) was 79% and 75%.

For “RNA1{[moe](G)[sp].[cEt](C)[sp].[cEt](A)[sp].d(T)[sp].d(A)[sp].d(G)[sp].d(C)[sp].d(A)[sp].d(G)[sp].d(C)[sp].d(A)[sp].d(G)[sp].d(G)[sp].[cEt](A)[sp].[cEt](T)[sp].[moe](G)}$$$$V2.0”, the target mRNA inhibition (HepG2, 0.07 µM) is 67% and 71%.

Turning to “RNA1{[moe](C)[sp].[cEt](A)[sp].d(A)[sp].d(T)[sp].d(T)[sp].d(T)[sp].d(A)[sp].d(T)[sp].d(G)[sp].d(C)[sp].d(C)[sp].d(T)[sp].[cEt](A)[sp].[moe](C)[sp].[cEt](A)[sp].[moe](G)}$$$$V2.0”, the target mRNA inhibition (HepG2, 0.07 µM) is 35% and 34%.

On to “RNA1{[moe](C)[sp].[moe](A)[sp].[moe](A)[sp].[moe](T)[sp].[moe](T)[sp].[moe](T)[sp].d(A)[sp].d(T)[sp].d(G)[sp].d(C)[sp].d(C)[sp].d(T)[sp].d(A)[sp].d(C)[sp].d(A)[sp].[moe](G)[sp].[moe](C)}$$$$V2.0”, for which the target mRNA inhibition (HepG2, 0.07 µM) was 26% and 22%.

Consider “RNA1{[moe](A)[sp].[moe](G)[sp].[moe](A)[sp].d(A)[sp].d(G)[sp].d(T)[sp].d(C)[sp].d(C)[sp].d(A)[sp].d(C)[sp].d(C)[sp].d(A)[sp].d(C)[sp].[cEt](G)[sp].[cEt](A)[sp].[cEt](G)}$$$$V2.0”, for which the target mRNA inhibition (HepG2, 0.07 µM) is 42% and 55%.

For the substance “RNA1{[moe](C)[sp].[moe](G)[sp].[moe](C)[sp].d(A)[sp].d(G)[sp].d(T)[sp].d(A)[sp].d(T)[sp].d(G)[sp].d(G)[sp].d(A)[sp].d(T)[sp].[moe](C)[sp].[moe](G)[sp].[moe](G)[sp].[moe](C)}$$$$V2.0”, for the setting “HepG2, 0.07 µM”, the target mRNA inhibition was 84% and 68%.

As for “RNA1{[moe](T)[sp].[cEt](G)[sp].[cEt](A)[sp].d(A)[sp].d(G)[sp].d(C)[sp].d(G)[sp].d(A)[sp].d(A)[sp].d(G)[sp].d(T)[sp].d(G)[sp].d(C)[sp].[cEt](A)[sp].[cEt](C)[sp].[moe](A)}$$$$V2.0”, the target mRNA inhibition (HepG2, 0.07 µM) was 69% and 77%.

With “RNA1{[moe](T)[sp].[cEt](G)[sp].[cEt](A)[sp].d(A)[sp].d(C)[sp].d(A)[sp].d(A)[sp].d(A)[sp].d(T)[sp].d(G)[sp].d(G)[sp].d(C)[sp].d(A)[sp].[cEt](C)[sp].[cEt](T)[sp].[moe](A)}$$$$V2.0”, for the setting “HepG2, 0.07 µM”, the target mRNA inhibition was 71% and 59%.

Turning to “RNA1{[moe](G)[sp].[moe](A)[sp].d(G)[sp].d(T)[sp].d(T)[sp].d(C)[sp].d(C)[sp].d(G)[sp].d(C)[sp].d(A)[sp].d(G)[sp].[moe](T)[sp].[moe](A)[sp].[moe](T)[sp].[moe](G)[sp].[moe](G)[sp].[moe](A)}$$$$V2.0”, where the note is “HepG2, 0.07 µM”, the target mRNA inhibition was 78% and 66%.

Where the note is “HepG2, 0.07 µM”, “RNA1{[moe](A)[sp].[moe](G)[sp].[moe](A)[sp].[moe](G)[sp].d(A)[sp].d(A)[sp].d(G)[sp].d(T)[sp].d(C)[sp].d(C)[sp].d(A)[sp].d(C)[sp].d(C)[sp].[moe](A)[sp].[moe](C)[sp].[moe](G)[sp].[moe](A)}$$$$V2.0” returned a target mRNA inhibition of 17%.

Consider “RNA1{[moe](G)[sp].[moe](A)[sp].[moe](T)[sp].[moe](G)[sp].d(A)[sp].d(G)[sp].d(G)[sp].d(C)[sp].d(A)[sp].d(T)[sp].d(A)[sp].d(G)[sp].d(C)[sp].[moe](A)[sp].[moe](G)[sp].[moe](C)[sp].[moe](A)}$$$$V2.0”, for which, where the note is “HepG2, 0.07 µM”, the target mRNA inhibition is 0% and 13%.

Consider “RNA1{[moe](G)[sp].[moe](T)[sp].[moe](G)[sp].d(C)[sp].d(A)[sp].d(G)[sp].d(A)[sp].d(G)[sp].d(G)[sp].d(T)[sp].d(G)[sp].d(A)[sp].[moe](A)[sp].[moe](G)[sp].[moe](C)[sp].[moe](G)[sp].[moe](A)}$$$$V2.0”, for which, where the note is “HepG2, 0.07 µM”, the target mRNA inhibition was 67% and 62%.

With “RNA1{[moe](A)[sp].[moe](A)[sp].[moe](C)[sp].[moe](T)[sp].[moe](G)[sp].d(G)[sp].d(A)[sp].d(G)[sp].d(C)[sp].d(C)[sp].d(A)[sp].d(C)[sp].d(C)[sp].d(A)[sp].[moe](G)[sp].[moe](C)[sp].[moe](A)}$$$$V2.0”, the target mRNA inhibition (HepG2, 0.07 µM) is 31% and 37%.

For the substance “RNA1{[moe](A)[sp].[moe](A)[sp].[moe](G)[sp].d(A)[sp].d(T)[sp].d(G)[sp].d(A)[sp].d(G)[sp].d(G)[sp].d(C)[sp].d(A)[sp].d(T)[sp].[moe](A)[sp].[moe](G)[sp].[moe](C)[sp].[moe](A)[sp].[moe](G)}$$$$V2.0”, the target mRNA inhibition (HepG2, 0.07 µM) is 69% and 60%.

As for “RNA1{[moe](G)[sp].[cEt](A)[sp].[cEt](A)[sp].d(G)[sp].d(A)[sp].d(T)[sp].d(G)[sp].d(A)[sp].d(G)[sp].d(G)[sp].d(C)[sp].d(A)[sp].d(T)[sp].[cEt](A)[sp].[cEt](G)[sp].[moe](C)}$$$$V2.0”, the target mRNA inhibition (HepG2, 0.07 µM) is 69% and 66%.

With “RNA1{[moe](T)[sp].[moe](G)[sp].[moe](A)[sp].[moe](G)[sp].[moe](G)[sp].d(C)[sp].d(A)[sp].d(T)[sp].d(A)[sp].d(G)[sp].d(C)[sp].d(A)[sp].d(G)[sp].d(C)[sp].[moe](A)[sp].[moe](G)[sp].[moe](G)}$$$$V2.0”, the target mRNA inhibition (HepG2, 0.07 µM) was 45% and 44%.

For “RNA1{[moe](T)[sp].[cEt](G)[sp].[cEt](G)[sp].d(A)[sp].d(G)[sp].d(C)[sp].d(C)[sp].d(A)[sp].d(C)[sp].d(C)[sp].d(A)[sp].d(G)[sp].d(C)[sp].[cEt](A)[sp].[cEt](G)[sp].[moe](G)}$$$$V2.0”, the target mRNA inhibition (HepG2, 0.07 µM) was 57% and 53%.

“RNA1{[moe](C)[sp].[moe](T)[sp].d(G)[sp].d(G)[sp].d(A)[sp].d(G)[sp].d(C)[sp].d(C)[sp].d(A)[sp].d(C)[sp].d(C)[sp].[moe](A)[sp].[moe](G)[sp].[moe](C)[sp].[moe](A)[sp].[moe](G)[sp].[moe](G)}$$$$V2.0”: the target mRNA inhibition (HepG2, 0.07 µM) was 66% and 64%.

Regarding “RNA1{[moe](C)[sp].[moe](C)[sp].[moe](G)[sp].d(C)[sp].d(A)[sp].d(G)[sp].d(T)[sp].d(A)[sp].d(T)[sp].d(G)[sp].d(G)[sp].d(A)[sp].d(T)[sp].[cEt](C)[sp].[cEt](G)[sp].[cEt](G)}$$$$V2.0”, the target mRNA inhibition (HepG2, 0.07 µM) is 72% and 79%.

As to “RNA1{[moe](G)[sp].[moe](A)[sp].[moe](G)[sp].d(T)[sp].d(T)[sp].d(C)[sp].d(C)[sp].d(G)[sp].d(C)[sp].d(A)[sp].d(G)[sp].d(T)[sp].[moe](A)[sp].[moe](T)[sp].[moe](G)[sp].[moe](G)[sp].[moe](A)}$$$$V2.0”, the target mRNA inhibition (HepG2, 0.07 µM) was 61% and 62%.

With “RNA1{[moe](G)[sp].[cEt](G)[sp].d(A)[sp].d(G)[sp].d(T)[sp].d(T)[sp].d(C)[sp].d(C)[sp].d(G)[sp].d(C)[sp].d(A)[sp].d(G)[sp].[cEt](T)[sp].[moe](A)[sp].[cEt](T)[sp].[moe](G)}$$$$V2.0”, the target mRNA inhibition is, setting by setting: (HepG2, 0.0092593 µM) 12%; (HepG2, 0.0277778 µM) 49%; (HepG2, 0.07 µM) 78% and 87%; (HepG2, 0.0833333 µM) 79%; (HepG2, 0.25 µM) 89%.

As for “RNA1{[moe](A)[sp].[moe](G)[sp].d(G)[sp].d(C)[sp].d(A)[sp].d(T)[sp].d(A)[sp].d(G)[sp].d(C)[sp].d(A)[sp].d(G)[sp].[moe](C)[sp].[moe](A)[sp].[moe](G)[sp].[moe](G)[sp].[moe](A)[sp].[moe](T)}$$$$V2.0”, the target mRNA inhibition (HepG2, 0.07 µM) was 75% and 68%.

For “RNA1{[moe](C)[sp].[moe](T)[sp].[moe](G)[sp].d(G)[sp].d(A)[sp].d(G)[sp].d(C)[sp].d(C)[sp].d(A)[sp].d(C)[sp].d(C)[sp].d(A)[sp].d(G)[sp].[cEt](C)[sp].[cEt](A)[sp].[cEt](G)}$$$$V2.0”, under “HepG2, 0.07 µM”, the target mRNA inhibition was found to be 60%.

Turning to “RNA1{[moe](G)[sp].[moe](A)[sp].d(A)[sp].d(C)[sp].d(C)[sp].d(A)[sp].d(C)[sp].d(T)[sp].d(G)[sp].d(A)[sp].d(A)[sp].[moe](C)[sp].[moe](A)[sp].[moe](A)[sp].[moe](A)[sp].[moe](T)}$$$$V2.0”, where the note is “HepG2, 0.07 µM”, the target mRNA inhibition is 37% and 25%.

As for “RNA1{[moe](C)[sp].[moe](A)[sp].[moe](A)[sp].[moe](T)[sp].d(T)[sp].d(T)[sp].d(A)[sp].d(T)[sp].d(G)[sp].d(C)[sp].d(C)[sp].d(T)[sp].d(A)[sp].[moe](C)[sp].[moe](A)[sp].[moe](G)}$$$$V2.0”, the target mRNA inhibition (HepG2, 0.07 µM) was 19% and 13%.

Consider “RNA1{[moe](G)[sp].[moe](C)[sp].[moe](A)[sp].d(G)[sp].d(T)[sp].d(A)[sp].d(T)[sp].d(G)[sp].d(G)[sp].d(A)[sp].d(T)[sp].d(C)[sp].d(G)[sp].[cEt](G)[sp].[cEt](C)[sp].[cEt](A)}$$$$V2.0”, for which the target mRNA inhibition was 4% (HepG2, 0.0092593 µM); 36% (HepG2, 0.0277778 µM); 74% and 85% (HepG2, 0.07 µM); 58% (HepG2, 0.0833333 µM); 84% (HepG2, 0.25 µM).
